The record followed here is patent US12491187B2, “Use of MCT1 inhibitors to enhance insulin sensitivity” (H. LEE MOFFIT CANCER CENTER AND RESEARCH INSTITUTE, INC., priority 2022, dated 2025).

What all share (format): cell-based, murine
Experiment [1] has as its system differentiated 3T3-L1 cells. Briefly: Proliferation (CyQUANT NF) of differentiated adipocytes. The following applies: 72 hr treatment, all concentrations ≥1 μM. The protocol:
Proliferation: 3T3-L1 cells were seeded and differentiated in black clear bottom 96-well plates (Corning®). After differentiation, wells were treated with vehicle or AZD3965 concentrations ranging from 10 nM to 10 µM for 24 hr, 48 hr or 72 hr as indicated. Cell viability was measured at the end of each treatment time using the CyQUANT™ NF Cell Proliferation assay (Invitrogen™) according to the manufacturer's protocols.

Experiment [2] has as its system differentiated 3T3-L1 (WT) cells. The experiment is described as follows: Oil Red O staining of fully differentiated adipocytes. The following applies: 1 μM, 24 hr, 48 hr or 72 hr. As for the experimental part:
Differentiation Protocol: The 3T3-L1 differentiation protocol was adapted from Green and Meuth (1974) (Zebisch, K, et al. Anal. Biochem. 2012 425:88-90; Green, H, et al. Cell 1974 3:127-133). Cells were seeded at approximately 80% confluency and allowed to reach confluency prior to induction of differentiation. 1-2 days post confluency, growth media was changed to ‘day 0’ media consisting of media supplemented with 0.5 mM 1-methyl-3-isobutyl xanthine (IBMX), 1 µM dexamethasone, and 10 μg/mL insulin. On ‘day 3’ media was changed to growth media with 10 μg/mL insulin only, and on ‘day 6’ media was replaced with normal growth media. After day 6, the complete media was refreshed every 2 days. Using Oil Red O staining, RT-qPCR and immunoblotting, it was determined that 3T3-L1 cells were fully differentiated into lipid-laden adipocytes by ‘day 8’ of the protocol, as reported by others (Petersen, C, et al. Sci. Rep. 2017 7:13101; Mangum, L H, et al. Toxicol. Lett. 2015 238:65-71). All differentiation experiments were performed on cells between passage 4 and 6 to ensure differentiation efficiency was consistent. Oil Red O Staining: Cells were then fixed with 4% PFA for 10 minutes. […] 10× images of cells were taken from randomized fields of view with the Cytation 5 Cell Imaging Multi-Mode reader (BioTek Instruments). Lipid content was also quantified on the Cytation 5.

The test system is the same in experiment [3]. The experiment is described as follows: Immunoblotting of protein expression in differentiated adipocytes. The protocol:
Immunoblotting: For the collection of membrane bound proteins (i.e., MCT1), cells were lysed and the membrane fraction of protein was isolated as previously described (Sadler, J B A, et al. Preparation of a total membrane fraction from 3T3-L1 adipocytes (Cold Spring Harb. Protoc. 2016, 2016, pdb-prot083675). Briefly, cells were lysed with ice cold HES buffer (250 mM sucrose, 20 mM HEPES, 1 mM EDTA, pH7.4) containing a cocktail of protease and phosphatase inhibitors (Roche Diagnostic) and centrifuged for 5 min (500 g at 4° C.) to pellet out nuclei. The remaining supernatant (containing cytosolic and membrane bound proteins) was collected. For all other immunoblotting experiments, RIPA lysis buffer containing protease and phosphatase inhibitors was used, and protein was isolated via centrifugation at 17,000 g for 10 min at 4° C. For all samples, protein concentration of the lysates was measured using the BCA Protein Assay Kit (Pierce Biotechnologies). Diluted lysates were added to Laemmli sample buffer and denatured at 95° C. for 5 min. After sample preparation, proteins were resolved via SDS-polyacrylamide gel electrophoresis (4-12%) using NuPAGE 4-12% Bis-Tris gels (Invitrogen), and transferred to nitrocellulose membranes. Blots were placed in blocking buffer (LI-COR Biosciences) and incubated overnight at 4° C. with primary antibodies at the recommended dilution. Blots were washed 3 times (5 minutes per wash) in TBST (20 mM Tris, pH 7.6, 140 mM NaCl, and 0.1% Tween-20), and then incubated with the appropriate IRDye-conjugated secondary antibody (LI-COR Biosciences) diluted in blocking buffer and incubated at room temperature for an hr. […] Bands were quantified using Image Studio™ (LI-COR Biosciences).
(A western blot detects proteins with antibodies after separation by electrophoresis.)

In experiment [4] the test system is differentiated 3T3-L1 cells. The experiment is described as follows: Lipolysis (intracellular glycerol, Glycerol-Glo). The following applies: 1 μM, all time points measured (24, 48, 72 hr). As for the experimental part: Lipolysis (Intracellular Glycerol): 3T3-L1 cells were seeded, differentiated and treated with or without AZD3965 (1 μM) for up to 72 hr in clear 96 well plates (Corning®). After media removal and washing cells with PBS, the Glycerol-Glo™ (Promega®) assay kit was used to assess changes in lipolysis through the quantification of intracellular glycerol according to the manufacturer's instructions. A luminescent signal is produced that is proportional to the amount of glycerol within the sample Luminescence was read on a spectrophotometer (FlexStation 3; Molecular Devices).

The subject of experiment [5] is differentiated 3T3-L1 adipocytes. The experiment is described as follows: Adipokine antibody array on conditioned media. The following applies: 72 hr treatment, media conditioned 24 hr. The protocol:
Adipokine Antibody Array: 3T3-L1 cells were differentiated and treated with or without AZD3965 for 72 hr. After this incubation, media was replenished, and adipocytes were cultured for an additional 24 hr to allow for adipokine secretion and media conditioning. Media was collected and analyzed for adipokine secretion with the Proteome Profiler Mouse Adipokine Array Kit (R&D Systems) according to the manufacturer's instructions. Chemiluminescence was detected with the LI-COR Odyssey® XF Imaging System with a 2 minute exposure time. Positive signals were quantified using Image Studio™ (LI-COR Biosciences) to quantify signal intensity. Data presented represent signal intensity normalized by the signal intensity of reference antibodies within the array.

With `Cc1[nH]nc(C(F)(F)F)c1Cc1sc2c(c1C(=O)N1C[C@](C)(O)CO1)c(=O)n(C)c(=O)n2C(C)C` [AZD3965, 5-[[(4S)-4-hydroxy-4-methyl-2-isoxazolidinyl]carbonyl]-3-methyl-1-(1-methylethyl)-6-[[5-methyl-3-(trifluoromethyl)-1H-pyrazol-4-yl]methyl]-thieno[2,3-d]pyrimidine-2,4 (1H, 3H)-dione], in experiment [1], the “total cell number (proliferation)” value is given as “significant increase in total cell number”. For the same compound, the “lipid content (Oil Red O staining) of differentiated adipocytes” value in experiment [2] is “progressive decrease in lipid content”. Also, the “total CDK1 protein expression” value in experiment [3] (1 μM, up to 72 hr) is “no change”. Also, in experiment [3] (1 μM, up to 72 hr, normalized to total CDK1 and α-tubulin), the “CDK1 phosphorylation at Tyr15” value was “significant decrease”. The HSL protein expression entry in experiment [3] (mature adipocytes, 24-72 hr treatment) was “significant decrease”. For the same compound, the FABP4 protein expression result is “significantly increased” in experiment [3] (mature adipocytes, 48 hr treatment) and “this increase was attenuated” in experiment [3] (mature adipocytes, by 72 hr treatment). In experiment [3] (mature adipocytes, up to 72 hr treatment), the PPARγ protein expression result is given as “no changes”. Further, the “intracellular glycerol levels (lipolysis)” value in experiment [4] is on record as “significantly increased”. Besides, the “adipokine levels in conditioned media” value in experiment [5] is given as “no significant differences”.
